Assay results as given in US10590496B2, “Composition for preventing and treating degenerative brain disease using novel lactic acid bacteria” (WEDEA INC., priority 2016, dated 2020).

Key:
activated Th lymphocytes = assay: Flow cytometry of activated Th lymphocytes in PBMC; type: in vivo, Balb/c based male mice; conditions: 100 mg/kg orally for 14 days
Method: (§1) Balb/c based male mice (8 weeks old) were divided into a vehicle control group, a group in which 5-aminolevulinic acid (hereinafter, referred as ‘ALA’, 100 mg/kg) was orally administered for 14 days (2 weeks), a group in which Lactobacillus reuteri ELF (hereinafter, referred to as ‘LAB’, 100 mg/kg) was orally administered for 14 days (2 weeks), a group in which a mixture sample (50 mg/kg) of Lactobacillus reuteri ELF and 5-aminolevulinic acid (hereinafter, referred to as ‘ALA+LAB’) was orally administered for 14 days (2 weeks), and a group in which the mixture sample (100 mg/kg) of Lactobacillus reuteri ELF and 5-aminolevulinic acid was orally administered for 14 days (2 weeks).
(§2) After 2 weeks of administration, in order to obtain PBMC in the mice, the blood was extracted using a syringe (3 ml) treated with heparin by a cardiac puncture method. The extracted blood was mixed and treated with 10 ml of ACK solution (a solution obtained by mixing 8.3 g of NH4Cl and 1 g of KHCO3 with demineralized water to which 0.1 Mm EDTA was added) prepared in advance at room temperature for 5 minutes, thereby removing red blood cells. […] Thereafter, the resultants were washed with PBS three times or more, and frequencies (%) of activated CD4^+ CD25^+, CD44^+ CD69^+, CD49b^+ NK1.1^+, and CD25^+ CTLA-4^+ cells were analyzed using a cell quest program of flow cytometry.

CD3 T cells = assay: Flow cytometry, frequency of CD3 T cells; type: in vivo, Balb/c based male mice; conditions: 100 mg/kg orally for 14 days
CD4^+ CD25^+ cells = assay: Flow cytometry, frequency of CD4^+ CD25^+ cells; type: in vivo, Balb/c based male mice; conditions: 100 mg/kg orally for 14 days
Method: as §1, §2

Gr-1/CD11b cells = assay: Flow cytometry, frequency of Gr-1/CD11b cells; type: in vivo, Balb/c based male mice; conditions: 100 mg/kg orally for 14 days
NKG2D = assay: Flow cytometry, frequency of NKG2D, bioactive marker of NK cells; type: in vivo, Balb/c based male mice; conditions: 100 mg/kg orally for 14 days
[1] = system: IFN-γ, IL-2, IL-4, and IL-10; assay: ELISA absorbance of culture supernatant of spleen cells (cytokine not specified); type: in vivo, Balb/c based male mice; conditions: 100 mg/kg orally for 14 days; spleen cells on anti-CD3 mAb, 48 hours
Method: as §1
(§3) After 2 weeks of administration, the spleen was harvested from the mice, and spleen cells were isolated with a 100 mesh filter. Before one day of measurement, anti-CD3 mAb (1 μg/ml) was coated on a 96-well plate and kept overnight in a refrigerator at 4° C., and the 96-well plate was washed with D-PBS two times. […] Levels of IFN-γ, IL-2, IL-4, and IL-10 in the culture supernatant were measured by enzyme-linked immuno-sorbent assay (ELISA). […] Thereafter, absorbance was measured at 450 nm in an ELISA reader.

IL-2 = IL-2 production amount in cultured spleen cells (ELISA); type: in vivo, Balb/c based male mice; conditions: single agents 100 mg/kg, mixture sample 50 and 100 mg/kg, orally for 14 days
Method: as §1, §3

IL-4 = IL-4 production amount in cultured spleen cells (ELISA); type: in vivo, Balb/c based male mice; conditions: single agents 100 mg/kg, mixture sample 50 and 100 mg/kg, orally for 14 days
Method: as §1, §3

IFN-γ = IFN-γ production amount in cultured spleen cells (ELISA); type: in vivo, Balb/c based male mice; conditions: single agents 100 mg/kg, mixture sample 50 and 100 mg/kg, orally for 14 days
Method: as §1, §3

[2] = system: nitrogen oxide (NO) in macrophage; assay: Nitrogen oxide (NO) formation in macrophage; type: in vivo, Balb/c based mice; conditions: 100 mg/kg orally for 14 days; peritoneal macrophages cultured 72 hours
Method: Balb/c based mice were divided into a vehicle control group, a group in which 5-aminolevulinic acid (100 mg/kg) was orally administered for 14 days (2 weeks), a group in which Lactobacillus reuteri ELF (100 mg/kg) was orally administered for 14 days (2 weeks), a group in which a mixture sample (50 mg/kg) of Lactobacillus reuteri ELF and 5-aminolevulinic acid was orally administered for 14 days (2 weeks), and a group in which the mixture sample (100 mg/kg) of Lactobacillus reuteri ELF and 5-aminolevulinic acid was orally administered for 14 days (2 weeks). Three days before termination of administration, after 1.5 ml of 10% proteose peptone (Difco) aqueous solution was administered into the abdominal cavity of the mice, the mice were sacrificed, and the abdomen was disinfected with alcohol. The skin of the abdomen was cut using scissors, and the peritoneum was exposed. Then, 4.5 ml of cooled Hanks' balanced salt solution (HBSS) was injected into the abdominal cavity using a syringe and abdominal massage was performed thereon for 30 seconds, followed by recovering a peritoneal washing fluid using a syringe. […] In addition, after 200 μl of […] reagent II in which 0.06 g of N-1-naphthylene amidehydrochloride was dissolved in 50 ml of distilled water was rapidly added thereto, and stirred, absorbance was measured at 540 nm.

[3] = system: peritoneal cell population; assay: Proliferation of peritoneal cell population (number of lymphocytes); type: in vivo, Balb/c based mice; conditions: abdominal cavity, orally for 14 days
Method: Balb/c based mice were divided into a vehicle control group, a group in which 5-aminolevulinic acid (100 mg/kg) was orally administered for 14 days (2 weeks), a group in which Lactobacillus reuteri ELF (100 mg/kg) was orally administered for 14 days (2 weeks), a group in which a mixture sample (50 mg/kg) of Lactobacillus reuteri ELF and 5-aminolevulinic acid was orally administered for 14 days (2 weeks), and a group in which the mixture sample (100 mg/kg) of Lactobacillus reuteri ELF and 5-aminolevulinic acid was orally administered for 14 days (2 weeks). Two days before termination of administration, 0.5 ml of 2% normal saline suspension of starch was injected into the abdominal cavity of the mice to thereby be immunized. The mice were sacrificed, and the abdomen was disinfected with alcohol. […] After recovered cells were cooled, washed with the same HBSS solution two times, the number of peritoneal cells existing therein was directly measured using a hemocytometer under a microscope. […] Thereafter, the resultants were washed with PBS three times or more, and frequencies (%) of activated CD11b^+ CD14^+, CD3^+ CD4^+, and CD3^+ CD8^+ cells were analyzed using the Cell Quest program of a flow cytometry, and a total cell count was applied thereto, thereby calculating the absolute number of peritoneal cell population.

[4] = system: cytochrome c oxidase (COX); assay: COX activity in liver mitochondria; type: in vivo, Balb/c based mice; conditions: 100 mg/kg orally for 14 days
Method: Balb/c based mice were divided into a vehicle control group, a group in which 5-aminolevulinic acid (100 mg/kg) was orally administered for 14 days (2 weeks), a group in which Lactobacillus reuteri ELF (100 mg/kg) was orally administered for 14 days (2 weeks), and a group in which the mixture sample (100 mg/kg) of Lactobacillus reuteri ELF and 5-aminolevulinic acid was orally administered for 14 days (2 weeks). In order to measure cytochrome c oxidase (COX) activity in the liver mitochondria of the mouse after administration, proteins were extracted from the liver cells of the mouse and measured using a COX activity assay kit (TA100, Toyo B Net).

- COX activity in liver mitochondria relative to control group [4]: increased by two times or more
Structure (SMILES): NCC(=O)CCC(=O)O [5-aminolevulinic acid]
- frequency of activated Th lymphocytes in PBMC, increase as compared to the negative control group (activated Th lymphocytes): ≥ 46.2%
- frequency of CD3 T cells as compared to the control group (CD3 T cells): increased
- frequency of CD4^+ CD25^+ cells as compared to the control group (CD4^+ CD25^+ cells): significantly increased
- frequency of Gr-1/CD11b cells as compared to the control group (Gr-1/CD11b cells): significantly increased
- frequency of NKG2D as compared to the control group (NKG2D): significantly increased
- ELISA absorbance at 450 nm relative to control group (NC) [1]: increased two times or more
- IL-2 production amount as compared to control group (NC) (IL-2): slightly increased
- IL-4 production amount as compared to control group (NC) (IL-4): slightly increased
- IFN-γ production amount as compared to control group (NC) (IFN-γ): slightly increased
- nitrogen oxide (NO) production amount as compared to the control group (NC) [2]: statistically significantly increased
- number of lymphocytes as compared to the control group [3]: increased
